# Columns and labels:
# Nrf2 = Nrf2 Western blot in bEnd.3 cells; assay type: cell-based, mouse; conditions: lipoic acid 1 mM alone; FIG. 9
# Description: Culture of bEnd.3 Cells for Nrf2 Study—Mouse brain endothelial (b.End3) cells are grown and maintained in DMEM supplemented with 10% fetal bovine serum and 1% penicillin streptomycin. Once cells reach 90% confluence, cells are split in a 1-to-5 ratio.
# Treatment of bEnd.3 Cells for Nrf2 Study—b.End3 cells are seeded on 10-cm petri dishes. On day 4, half of the old media is discarded and replaced with fresh media.
# Nrf2 Western blotting—Cell extraction is performed using Cell Lysis Buffer and the provided protocol (ThermoFisher #FNN0011). Proteins are quantified using Bradford assay (Thermofisher #1863028). Same amounts of proteins of each lysate (20 μg) are loaded on an SDS-PAGE gel under reducing conditions (unless stated otherwise). Membrane transfer is done overnight (about 18 hours) in cold room and blocked with 5% dry milk/TBST the next day. Subsequently, the membrane is incubated with primary antibodies overnight (about 18 hours) and with secondary antibodies for an hour in blocking solution. Signals are developed with ECL (ThermoFisher #A43840) and captured with ChemiDoc™ Imaging System.
# DS lymphocytes = assay: AP39 challenge of DS lymphocytes; assay type: cell-based, human; conditions: DS cells; 5 μM AP39; p<0.05; FIG. 10
# Excerpt: (§1) Age-matched and sex-matched DS-donor and apparently healthy individual (AHI) lymphocytes (Coriell Institute, Camden, NJ) are used as a human model of DS.
# AHI lymphocytes = assay: AP39 challenge of AHI lymphocytes; assay type: cell-based, human; conditions: AHI cells; 5 μM AP39; p<0.05; FIG. 10
# Excerpt: as §1
Structure (SMILES),Nrf2 signal (Western blot) (Nrf2),cell proliferation (DS lymphocytes),viability versus untreated control (DS lymphocytes),cell proliferation (AHI lymphocytes)
O=C(O)CCCC[C@@H]1CCSS1 (racemic) [lipoic acid],some small increases in signal,–,–,–
O=C(CCCCCCCCC[P+](c1ccccc1)(c1ccccc1)c1ccccc1)Oc1ccc(-c2cc(=S)ss2)cc1.[Br-] [AP39],–,reduced,significant reduction in viability,reduced

# Reference: patent US12721863B2, “Treatment for down syndrome-related accelerated aging” (The Texas A&M University System, priority 2021, dated 2026)
